Assay results: patent US4416871A, “Inhibition by peptides of tolerance to and physical dependence on morphine” (The United States of America as represented by the …, priority 1982, dated 1983)
Entries after “also recorded” stand apart in the source; their conditions may differ. Non-standard residues stand in square brackets, D forms with d. Residues, ends and D or L forms follow the SMILES beside them. No end group written: not given here. *: point of attachment. pGlu = O=C1CC[C@@H](C(=O)O)N1; Cbz = O=C(OCc1ccccc1)*

Experiments:
[1] = literature, Life Sci., 19, 1331-1340; cited from earlier work
[2] = tested on: morphine-dependent mice; test: Naloxone-precipitated withdrawal: body temperature and withdrawal signs; type: in vivo; conditions: for Withdrawal, % of control (jumping, shakes, diarrhea) / Δt, °C. (difference in body temperature just prior to naloxone and 30 min. thereafter): Table II, peptide 50 μg per mouse, naloxone 0.1 mg/kg; for Δt, °C. (difference in body temperature just prior to naloxone and 30 min. thereafter): mean ± SD; for Withdrawal, % of control / Δt, °C. / lowest dose still effective in blocking physical dependence on morphine: Table III; for Withdrawal, % of control / Δt, °C.: dose 50 μg; for lowest dose still effective in blocking physical dependence on morphine: dose-response experiments; for ability to block development of physical dependence on morphine: naloxone-precipitated withdrawal, Tables II and III
Protocol: The mice were randomly divided into two groups. One received SC injections of water (vehicle) while the other received the peptide under investigation (50 μg/mouse on day one). Two hours later the mice were further subdivided and each subgroup was implanted with placebo or morphine pellets. The injections of vehicle and peptide were repeated 24 and 48 hours after the first injection in their respective groups. Morphine pellets containing 75 mg of morphine free base were implanted subcutaneously (SC) between 10-11 A.M. and were removed 3 days later at the same time. The control animals were implanted with placebo pellets. Body temperature and weight were measured daily at 11 A.M. Temperature was measured using a lubricated rectal probe inserted 2.5 cm into the rectum and measured with a telethermometer (Model 43TA Yellow Springs Instrument Co., Yellow Springs, Ohio).
To determine the effects of peptide treatment on the development of physical dependence, the abstinence syndrome was precipitated using the morphine antagonist naloxone (Endo Laboratories Inc., N.Y.) at the appropriate dose (0.1, 0.25, or 0.50 mg/kg) injected intraperitoneally (IP) one hour following removal of morphine and placebo pellets. Pellet removal was performed 24 hours after the last peptide injection. These mice were monitored for changes in body temperature (see above) and body weight at 15 min. intervals for one hour after the naloxone injection. Effects of removing the pellets (withdrawing morphine) were also assessed by utilizing body temperature and weight as physical dependence parameters; however, these measurements were made at 2 hour intervals for 10 hours after the removal of the pellets. Placebo implanted mice were treated in the same manner as the morphine pellet implanted mice.

[3] = tested on: morphine-dependent mice; test: as above; type: in vivo; conditions: Table III

Molecule	Withdrawal, % of control (jumping, shakes, diarrhea) [2] [%]	Δt, °C. (difference in body temperature just prior to naloxone and 30 min. thereafter) [2]	also measured
8-arginine vasotocin			relative potency in facilitating development of physical dependence on and tolerance to morphine [1]: more effective than 8-arginine vasopressin
CC(C)C[C@@H]1NC(=O)[C@H](C)NC1=O [Cyclo(Leu--Ala)]	100	-1.80 ± 0.96 °C	
CC(C)C[C@@H]1NC(=O)CNC1=O [Cyclo(Leu--Gly), cyclo(leucyl-glycine)]	21	-0.02 ± 0.83 °C	Withdrawal, % of control ([3]; dose 0.05 μg): 20%; Δt, °C. ([3]; dose 0.05 μg): +0.27 ± 0.70 °C; Withdrawal, % of control ([3]; dose 0.5 μg): 0%; Δt, °C. ([3]; dose 0.5 μg): +0.30 ± 0.29 °C; Withdrawal, % of control ([3]; dose 5 μg): 0%; Δt, °C. ([3]; dose 5 μg): +0.47 ± 0.32 °C; Withdrawal, % of control [2]: 18%; Δt, °C. [2]: -0.19 ± 0.58 °C; lowest dose still effective in blocking physical dependence on morphine [2]: ≤ 0.05 μg per mouse; ability to block development of physical dependence on morphine [2]: showed significant activity; also recorded: most potent peptides tested; relative potency in facilitating development of physical dependence on and tolerance to morphine [1]: as effective as oxytocin
CC(C)C[C@H]1NC(=O)[C@@H]2CCCN2C1=O [Cyclo(Pro--D-Leu)]	40	-0.24 ± 1.06 °C	
O=C1N[C@@H](Cc2ccccc2)C(=O)N2CCC[C@@H]12 [Cyclo(Pro--Phe)]	20	-0.13 ± 0.55 °C	ability to block development of physical dependence on morphine [2]: showed significant activity
CC(C)C[C@H](NC(=O)[C@@H]1CCCN1C(=O)CNC(=O)OCc1ccccc1)C(=O)NCC(=O)O [Z-Gly--Pro--Leu--Gly--COOH] (Cbz-GPLG-OH)	22	-0.07 ± 0.72 °C	
CC(C)C[C@H](NC(=O)OCc1ccccc1)C(=O)NCC(N)=O [Z-Leu--Gly--NH2] (Cbz-Leu-Gly-NH2)	70	-0.75 ± 0.72 °C	
CC(C)C[C@H](NC(=O)[C@@H]1CCCN1C(=O)OCc1ccccc1)C(=O)NCC(=O)O [Z-Pro--Leu--Gly--COOH] (Cbz-Pro-Leu-Gly-OH)	100	-1.20 ± 0.39 °C	
CC(C)C[C@H](NC(=O)[C@@H]1CCCN1C(=O)OCc1ccccc1)C(N)=O [Z-Pro--Leu--NH2] (Cbz-Pro-Leu-NH2)	100	-0.95 ± 0.21 °C	
CC(C)C[C@H](NC(=O)[C@@H]1CCC(=O)N1)C(=O)NCC(N)=O [[Glu--Leu--Gly--NH2] ([pGlu]-Leu-Gly-NH2)	44	-0.27 ± 0.72 °C	
CC[C@H](C)[C@@H]1NC(=O)[C@H](Cc2ccc(O)cc2)NC(=O)[C@@H](N)CSSC[C@@H](C(=O)N2CCC[C@H]2C(=O)N[C@@H](CC(C)C)C(=O)NCC(N)=O)NC(=O)[C@H](CC(N)=O)NC(=O)[C@H](CCC(N)=O)NC1=O [oxytocin]			relative potency in facilitating development of physical dependence on and tolerance to morphine [1]: more effective than 8-arginine vasopressin
Cbz-Ala-Pro	100	-1.20 ± 0.21 °C	
Cbz-Pro-Ala	63	-0.74 ± 0.94 °C	
Cbz-Pro-Gln	0	+0.08 ± 0.33 °C	
Cbz-Pro-Glu	45	-0.63 ± 0.88 °C	
Cbz-Pro-Gly	69	-0.79 ± 0.78 °C	
Cbz-Pro-Ile	78	-1.19 ± 0.91 °C	
Cbz-Pro-Leu	22	+0.08 ± 0.93 °C	Withdrawal, % of control ([3]; dose 0.5 μg): 100%; Δt, °C. ([3]; dose 0.5 μg): -1.17 ± 0.17 °C; Withdrawal, % of control ([3]; dose 5 μg): 0%; Δt, °C. ([3]; dose 5 μg): +0.33 ± 0.26 °C; Withdrawal, % of control [2]: 18%; Δt, °C. [2]: +0.08 ± 0.93 °C; lowest dose still effective in blocking physical dependence on morphine [2]: 5 μg per mouse; ability to block development of physical dependence on morphine [2]: exhibited activity
Cbz-Pro-Met	0	+0.17 ± 0.23 °C	
Cbz-Pro-Phe	89	-1.03 ± 0.55 °C	Withdrawal, % of control ([3]; dose 0.05 μg): 100%; Δt, °C. ([3]; dose 0.05 μg): -1.60 ± 0.69 °C; Withdrawal, % of control ([3]; dose 0.5 μg): 100%; Δt, °C. ([3]; dose 0.5 μg): -0.69 ± 0.22 °C; Withdrawal, % of control ([3]; dose 5 μg): 100%; Δt, °C. ([3]; dose 5 μg): -0.69 ± 0.24 °C; Withdrawal, % of control [2]: 99%; Δt, °C. [2]: -1.03 ± 0.55 °C
Cbz-Pro-Ser	39	-0.29 ± 0.73 °C	
Cbz-Pro-Tyr	0	+0.13 ± 0.31 °C	
Cbz-Pro-Val	63	-0.44 ± 0.48 °C	
Cbz-[dP]-Leu	14	+0.17 ± 0.71 °C	ability to block development of physical dependence on morphine [2]: exhibited activity
Z-D-Pro--D-Leu	0	+0.10 ± 0.56 °C	ability to block development of physical dependence on morphine [2]: exhibited activity
Z-Pro--D-Ala--DCHA	50	-0.55 ± 0.90 °C	
Z-Pro--Leu--Gly--N(CH3)2	100	-0.47 ± 0.15 °C	
Z-Pro--ΔPhe	22	-0.36 ± 0.58 °C	
